How the values were obtained:
Experiment in all cases: relative viability (nuclei count vs DMSO), 5 days (fraction); higher = more cells survive
[1] = compound: COc1cc(N2CCC(N3CCN(C)CC3)CC2)ccc1Nc1ncc(Cl)c(Nc2ccccc2S(=O)(=O)C(C)C)n1 [NVP-TAE684] + CC1(C)CCC(c2ccc(Cl)cc2)=C(CN2CCN(c3ccc(C(=O)NS(=O)(=O)c4ccc(N[C@H](CCN5CCOCC5)CSc5ccccc5)c(S(=O)(=O)C(F)(F)F)c4)cc3)CC2)C1 [Navitoclax] (partner 0.5 µM)
Summary of the method: (§1)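 Lung cancer cell lines, seeded in 1536-well plates, were treated the following day by pin tool with a single drug or with five library-drug doses (not always all listed) in √10 steps on top of a fixed anchor-drug dose. Cells were fixed and nuclei stained in one step after 5 days, and nuclei were counted. Relative viability is the nuclei count for treated wells divided by that for vehicle wells, reported as medians of duplicate plates.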

[2] = compound: COc1cc(N2CCC(N3CCN(C)CC3)CC2)ccc1Nc1ncc(Cl)c(Nc2ccccc2S(=O)(=O)C(C)C)n1 [NVP-TAE684] + Nc1nc2[nH]cc(CCc3ccc(C(=O)N[C@@H](CCC(=O)O)C(=O)O)cc3)c2c(=O)[nH]1 [Pemetrexed] (partner 0.2 µM)
Summary of the method: as §1

[3] = compound: COc1cc2/c(=N/c3ccc(Br)cc3F)nc[nH]c2cc1OCC1CCN(C)CC1 [Vandetanib] + O=C(c1cc(Cc2n[nH]c(=O)c3ccccc23)ccc1F)N1CCN(C(=O)C2CC2)CC1 [Olaparib] (partner 8 µM)
Summary of the method: as §1

[4] = compound: COc1cc(N2CCC(N3CCN(C)CC3)CC2)ccc1Nc1ncc(Cl)c(Nc2ccccc2S(=O)(=O)C(C)C)n1 [NVP-TAE684] + C[C@@H](Oc1cc(-c2cnn(C3CCNCC3)c2)cnc1N)c1c(Cl)ccc(F)c1Cl [Crizotinib] (partner 1 µM)
Summary of the method: as §1

[5] = compound: C#Cc1cccc(Nc2ncnc3cc(OC)c(OCCCCCCC(=O)NO)cc23)c1 [CUDC-101] + CC1(C)CCC(c2ccc(Cl)cc2)=C(CN2CCN(c3ccc(C(=O)NS(=O)(=O)c4ccc(N[C@H](CCN5CCOCC5)CSc5ccccc5)c(S(=O)(=O)C(F)(F)F)c4)cc3)CC2)C1 [Navitoclax] (partner 0.5 µM)
Summary of the method: as §1

Row | Cell Line | relative viability ([1]; first compound 0.2 µM) | relative viability ([1]; first compound 0.6325 µM) | relative viability ([1]; first compound 2 µM) | relative viability ([2]; first compound 0.2 µM) | relative viability ([2]; first compound 0.6325 µM) | relative viability ([2]; first compound 2 µM) | relative viability ([3]; first compound 0.02 µM) | relative viability ([3]; first compound 0.06325 µM) | relative viability ([3]; first compound 0.2 µM) | relative viability ([3]; first compound 0.6325 µM) | relative viability ([3]; first compound 2 µM) | relative viability ([4]; first compound 0.2 µM) | relative viability ([4]; first compound 0.6325 µM) | relative viability ([4]; first compound 2 µM) | relative viability ([5]; first compound 0.01 µM) | relative viability ([5]; first compound 0.03162 µM) | relative viability ([5]; first compound 0.1 µM) | relative viability ([5]; first compound 0.3162 µM) | relative viability ([5]; first compound 1 µM)
1 | LC-2-ad | 0.394 | 0.264 | 0.12 | 0.241 | 0.269 | 0.232 | 0.673 | 0.711 | 0.695 | 0.792 | 0.714 | 0.419 | 0.433 | 0.315 | 0.462 | 0.475 | 0.49 | 0.517 | 0.196
2 | NCI-H2023 | 0.965 | 1.04 | 0.775 | 0.258 | 0.186 | 0.123 | 0.464 | 0.473 | 0.484 | 0.466 | 0.479 | 0.549 | 0.45 | 0.144 | 1.02 | 0.983 | 0.993 | 1 | 0.964
3 | SK-LU-1 | 1.12 | 0.88 | 0.206 | 0.826 | 1 | 0.575 | 0.496 | 0.313 | 0.54 | 0.437 | 0.597 | 0.972 | 0.81 | 0.412 | 1.03 | 0.774 | 0.852 | 0.662 | 0.489
4 | LCLC-97TM1 | 0.321 | 0.495 | 0.13 | 0.184 | 0.144 | 0.114 | 0.374 | 0.377 | 0.357 | 0.352 | 0.343 | 0.216 | 0.336 | 0.0982 | 0.416 | 0.304 | 0.593 | 0.377 | 0.306
5 | NCI-H1915 | 0.795 | 0.806 | 0.752 | 0.537 | 0.463 | 0.472 | 0.244 | 0.227 | 0.265 | 0.231 | 0.24 | 0.922 | 0.921 | 0.858 | 0.796 | 0.793 | 0.804 | 0.743 | 0.743
6 | NCI-H358 | – | – | – | 0.166 | 0.151 | 0.13 | 0.552 | 0.527 | 0.646 | 0.472 | 0.319 | 0.441 | 0.347 | 0.081 | – | – | – | – | –
7 | LK-2 | 0.777 | – | 0.449 | 0.271 | 0.229 | 0.175 | 0.846 | 0.71 | 0.724 | 0.72 | 0.669 | 0.228 | 0.223 | 0.203 | 0.927 | 0.826 | 0.819 | 0.741 | 0.415
8 | ABC-1 | – | – | – | – | – | – | 0.538 | 0.617 | 0.774 | 0.904 | 0.726 | 1.06 | 0.893 | 0.296 | – | – | – | – | –
9 | NCI-H1793 | 0.467 | 0.491 | 0.43 | 0.929 | 0.651 | 0.779 | 0.86 | 0.803 | 0.74 | 0.658 | 0.577 | – | – | – | 0.426 | 0.319 | 0.417 | 0.406 | 0.35
10 | NCI-H1563 | – | – | – | 0.757 | 0.692 | 0.654 | – | – | – | – | – | 0.771 | 0.79 | 0.651 | – | – | – | – | –
11 | NCI-H661 | – | – | – | 0.959 | 0.924 | 0.894 | 0.793 | 0.696 | 0.726 | 0.759 | 0.735 | 1.03 | 1.02 | 1.05 | – | – | – | – | –
12 | NCI-H1395 | 1.79 | 1.01 | 1.02 | 0.971 | 0.831 | 0.823 | 0.511 | 0.487 | 0.442 | 0.523 | 0.494 | – | – | – | 1.26 | 1.13 | 1.46 | 1.75 | 0.991
13 | LCLC-103H | – | – | – | 0.473 | 0.48 | 0.478 | 0.729 | 0.657 | 0.529 | 0.698 | 0.707 | 1.16 | 1.08 | 1 | – | – | – | – | –
14 | NCI-H2342 | – | – | – | 0.93 | 0.771 | 0.493 | 0.482 | 0.41 | 0.477 | 0.415 | 0.438 | – | – | – | – | – | – | – | –
15 | EBC-1 | 0.323 | 0.247 | 0.245 | – | – | – | 0.698 | 0.603 | 0.69 | 0.782 | 0.693 | 0.208 | 0.174 | 0.155 | 0.41 | 0.377 | 0.365 | 0.184 | 0.144
16 | NCI-H727 | 0.381 | 0.331 | 0.153 | – | – | – | 0.727 | 0.68 | 0.662 | 0.739 | 0.621 | 0.679 | 0.635 | 0.221 | 0.377 | 0.413 | 0.417 | 0.304 | 0.269
17 | NCI-H650 | – | – | – | 0.901 | 0.939 | 0.757 | 0.359 | 0.361 | 0.392 | 0.409 | 0.445 | 0.799 | 0.516 | 0.399 | – | – | – | – | –
18 | NCI-H1299 | 1.08 | 1.05 | 1.05 | – | – | – | 0.983 | 0.928 | 0.924 | 0.933 | 0.981 | 1.01 | 0.959 | 0.623 | 1.05 | 0.992 | 1.12 | 1.06 | 1.02
19 | Calu-6 | 0.776 | 0.694 | 0.269 | – | – | – | 0.526 | 0.552 | 0.579 | 0.572 | 0.563 | 0.73 | 0.687 | 0.285 | 0.93 | 1.1 | 0.848 | 0.82 | 0.624
20 | NCI-H1703 | 1.17 | 1.04 | 0.215 | – | – | – | 0.458 | 0.267 | 0.385 | 0.342 | 0.303 | 0.743 | 0.516 | 0.144 | 0.968 | – | 1.21 | 1.59 | 0.794
21 | NCI-H1648 | – | – | – | – | – | 0.415 | 0.591 | 0.771 | 0.91 | 1.15 | 0.761 | – | – | – | – | – | – | – | –

From the supplement of paper PMC10307832
